In ChEMBL document CHEMBL3885881, “DrugMatrix”:

Organism: Rattus norvegicus
Experiment: DrugMatrix - Regimen: Daily Repeat
Type: toxicity, organism-based, Sprague-Dawley
Design: regimen Daily Repeat, gender Male, age 6-8 weeks
Conditions: in vivo, po, route oral GAVAGE, vehicle .5 % CMC; for URIC ACID / ALANINE AMINOTRANSFERASE / ALBUMIN / ALKALINE PHOSPHATASE / ASPARTATE AMINOTRANSFERASE / BLOOD UREA NITROGEN / CARBON DIOXIDE / CHLORIDE / CHOLESTEROL / CREATINE PHOSPHOKINASE / CREATININE / GLUCOSE / LACTATE DEHYDROGENASE / LIPASE / PHOSPHORUS / POTASSIUM / SODIUM / TOTAL BILIRUBIN / TOTAL PROTEIN: tissue Plasma; for ABSOLUTE BASOPHIL / ABSOLUTE EOSINOPHIL / ABSOLUTE LYMPHOCYTE / ABSOLUTE MONOCYTE / ABSOLUTE SEGMENTED NEUTROPHIL / BASOPHIL / EOSINOPHIL / ERYTHROCYTE COUNT / HEMATOCRIT / HEMOGLOBIN / LEUKOCYTE COUNT / LYMPHOCYTE / MEAN CORPUSCULAR HEMOGLOBIN / MEAN CORPUSCULAR HEMOGLOBIN CONCENTRATION / MEAN CORPUSCULAR VOLUME / MONOCYTE / NEUTROPHIL / NUCLEATED RED BLOOD CELLS / PLATELET COUNT: tissue Blood
[1] = 3 mg/kg, 120 h, dose level Low, time 5 day
[2] = 29 mg/kg, 72 h, dose level High, time 3 day
[3] = 29 mg/kg, 120 h, dose level High, time 5 day

With `O=c1[nH]cc(F)c(=O)[nH]1` [FLUOROURACIL] the “URIC ACID” value (3 mg/kg, 72 h, dose level Low, time 3 day) was 2.6 mg/dL, the “ABSOLUTE BASOPHIL” value [1] was 0 CELLS/uL and the “ABSOLUTE EOSINOPHIL” value [1] was 0 CELLS/uL. For the same molecule, the “ABSOLUTE LYMPHOCYTE” value [1] was 14436 CELLS/uL, the “ABSOLUTE MONOCYTE” value [1] was 30.67 CELLS/uL and the “ABSOLUTE SEGMENTED NEUTROPHIL” value [1] was 1566.67 CELLS/uL. The BASOPHIL [1] was 0%, the EOSINOPHIL [1] was 0% and the “ERYTHROCYTE COUNT” value [1] was 6.23 x10E6/uL. The HEMATOCRIT [1] was 38.2%, the HEMOGLOBIN [1] was 14.4 G/DL and the “LEUKOCYTE COUNT” value [1] was 16.03 x10E3/uL. The LYMPHOCYTE [1] was 88.67%, the “MEAN CORPUSCULAR HEMOGLOBIN” value [1] was 23.13 pg and the “MEAN CORPUSCULAR HEMOGLOBIN CONCENTRATION” value [1] was 37.73 G/DL. For the same molecule, the “MEAN CORPUSCULAR VOLUME” value [1] was 61.3 fL, the MONOCYTE [1] was 0.33% and the NEUTROPHIL [1] was 11%. For the same molecule, the “NUCLEATED RED BLOOD CELLS” value [1] was 0 /100WBC, the “PLATELET COUNT” value [1] was 1198.67 x10E3/uL and the “ALANINE AMINOTRANSFERASE” value [1] was 42.67 u/L. The ALBUMIN [1] was 4.47 G/DL, the “ALKALINE PHOSPHATASE” value [1] was 303.33 u/L and the “ASPARTATE AMINOTRANSFERASE” value [1] was 79 u/L. The “BLOOD UREA NITROGEN” value [1] was 16 mg/dL, the “CARBON DIOXIDE” value [1] was 27.67 mmol/L and the CHLORIDE [1] was 99.67 MEQ/L. For the same molecule, the CHOLESTEROL [1] was 71 mg/dL, the “CREATINE PHOSPHOKINASE” value [1] was 253.67 u/L and the CREATININE [1] was 0.22 mg/dL. The GLUCOSE [1] was 146 mg/dL, the “LACTATE DEHYDROGENASE” value [1] was 229 u/L and the LIPASE [1] was 8.33 u/L. It also gave a PHOSPHORUS [1] of 11.5 mg/dL, a POTASSIUM [1] of 6.67 MEQ/L and an SODIUM [1] of 144.17 MEQ/L. The “TOTAL BILIRUBIN” value [1] was 0.2 mg/dL, the “URIC ACID” value [1] was 1.6 mg/dL and the “ABSOLUTE BASOPHIL” value [2] was 0 CELLS/uL. For the same molecule, the “ABSOLUTE EOSINOPHIL” value [2] was 63.33 CELLS/uL, the “ABSOLUTE LYMPHOCYTE” value [2] was 11413 CELLS/uL and the “ABSOLUTE MONOCYTE” value [2] was 90.33 CELLS/uL. For the same molecule, the “ABSOLUTE SEGMENTED NEUTROPHIL” value [2] was 633.33 CELLS/uL, the BASOPHIL [2] was 0% and the EOSINOPHIL [2] was 0.67%. For the same molecule, the “ERYTHROCYTE COUNT” value [2] was 5.41 x10E6/uL, the HEMATOCRIT [2] was 34.9% and the HEMOGLOBIN [2] was 13.17 G/DL. The “LEUKOCYTE COUNT” value [2] was 12.2 x10E3/uL, the LYMPHOCYTE [2] was 93.67% and the “MEAN CORPUSCULAR HEMOGLOBIN” value [2] was 24.33 pg. For the same molecule, the “MEAN CORPUSCULAR HEMOGLOBIN CONCENTRATION” value [2] was 37.73 G/DL, the “MEAN CORPUSCULAR VOLUME” value [2] was 64.5 fL and the MONOCYTE [2] was 0.67%. For the same molecule, the NEUTROPHIL [2] was 5%, the “NUCLEATED RED BLOOD CELLS” value [2] was 0.33 /100WBC and the “PLATELET COUNT” value [2] was 1461.33 x10E3/uL. The “ALANINE AMINOTRANSFERASE” value [2] was 43.33 u/L, the ALBUMIN [2] was 4.47 G/DL and the “ALKALINE PHOSPHATASE” value [2] was 451.67 u/L. The “ASPARTATE AMINOTRANSFERASE” value [2] was 81.67 u/L, the “BLOOD UREA NITROGEN” value [2] was 15.67 mg/dL and the “CARBON DIOXIDE” value [2] was 26.33 mmol/L. The CHLORIDE [2] was 101.67 MEQ/L, the CHOLESTEROL [2] was 58.67 mg/dL and the “CREATINE PHOSPHOKINASE” value [2] was 429.33 u/L. The CREATININE [2] was 0.19 mg/dL, the GLUCOSE [2] was 206.33 mg/dL and the “LACTATE DEHYDROGENASE” value [2] was 150.67 u/L. The LIPASE [2] was 8 u/L, the PHOSPHORUS [2] was 12.07 mg/dL and the POTASSIUM [2] was 6.46 MEQ/L. For the same molecule, the SODIUM [2] was 143.2 MEQ/L, the “TOTAL BILIRUBIN” value [2] was 0.17 mg/dL and the “TOTAL PROTEIN” value [2] was 6.07 G/DL. The “URIC ACID” value [2] was 2.17 mg/dL, the “ABSOLUTE BASOPHIL” value [3] was 0 CELLS/uL and the “ABSOLUTE EOSINOPHIL” value [3] was 58 CELLS/uL. For the same molecule, the “ABSOLUTE LYMPHOCYTE” value [3] was 4679.33 CELLS/uL, the “ABSOLUTE MONOCYTE” value [3] was 33 CELLS/uL and the “ABSOLUTE SEGMENTED NEUTROPHIL” value [3] was 263 CELLS/uL. The BASOPHIL [3] was 0%, the EOSINOPHIL [3] was 1% and the “ERYTHROCYTE COUNT” value [3] was 6.26 x10E6/uL. For the same molecule, the HEMATOCRIT [3] was 39%, the HEMOGLOBIN [3] was 15.3 G/DL and the “LEUKOCYTE COUNT” value [3] was 5.03 x10E3/uL. For the same molecule, the LYMPHOCYTE [3] was 93%, the “MEAN CORPUSCULAR HEMOGLOBIN” value [3] was 24.43 pg and the “MEAN CORPUSCULAR HEMOGLOBIN CONCENTRATION” value [3] was 39.23 G/DL. For the same molecule, the “MEAN CORPUSCULAR VOLUME” value [3] was 62.37 fL, the MONOCYTE [3] was 0.67% and the NEUTROPHIL [3] was 5.33%. The “NUCLEATED RED BLOOD CELLS” value [3] was 0 /100WBC, the “PLATELET COUNT” value [3] was 964.67 x10E3/uL and the “ALANINE AMINOTRANSFERASE” value [3] was 23.67 u/L. For the same molecule, the ALBUMIN [3] was 4.03 G/DL, the “ALKALINE PHOSPHATASE” value [3] was 148.33 u/L and the “ASPARTATE AMINOTRANSFERASE” value [3] was 75.67 u/L. The “BLOOD UREA NITROGEN” value [3] was 18.67 mg/dL, the “CARBON DIOXIDE” value [3] was 25 mmol/L and the CHLORIDE [3] was 102.67 MEQ/L. The CHOLESTEROL [3] was 89.67 mg/dL, the “CREATINE PHOSPHOKINASE” value [3] was 751.33 u/L and the CREATININE [3] was 0.12 mg/dL. For the same molecule, the GLUCOSE [3] was 106.67 mg/dL, the “LACTATE DEHYDROGENASE” value [3] was 166.33 u/L and the LIPASE [3] was 7.33 u/L. For the same molecule, the PHOSPHORUS [3] was 7.93 mg/dL, the POTASSIUM [3] was 5.82 MEQ/L and the SODIUM [3] was 150.33 MEQ/L. The “TOTAL BILIRUBIN” value [3] was 0.17 mg/dL, the “TOTAL PROTEIN” value [3] was 5.57 G/DL and the “URIC ACID” value [3] was 0.93 mg/dL.
